Reference: ChEMBL document CHEMBL3526048, “In vitro metabolism of rivoglitazone, a novel peroxisome proliferator-activated receptor γ agonist, in rat, monkey, and human liver microsomes and freshly isolated hepatocytes” (Drug Metab Dispos, 2011)

Legend:
[1] = Drug level in cynomolgus monkey liver microsomes treated with [14C]-rivoglitazone at 20 uM after 2 to 4 hrs by radio-HPLC/LC-MS/MS analysis in presence of UDPGA, UDPGA/SAM and NADPH-generating system; assay type: ADME, Macaca fascicularis
Liver microsome = assay: Drug level in human liver microsomes treated with [14C]-rivoglitazone at 20 uM after 2 to 4 hrs by radio-HPLC/LC-MS/MS analysis in presence of UDPGA, UDPGA/SAM and NADPH-generating system; assay type: ADME
Hepatocyte = assay: Drug level in human hepatocytes treated with [14C]-rivoglitazone at 30 uM after 3 hrs by radio-HPLC/LC-MS/MS analysis in presence of UDPGA, UDPGA/SAM and NADPH-generating system; assay type: ADME, cell-based
[2] = Drug metabolism in human hepatocytes assessed as formation of 2-((4-((2,4-dioxothiazolidin-5-yl)methyl)phenoxy)methyl)-1-methyl-1H-benzo[d]imidazol-6-yl hydrogen sulfate at 30 uM after 3 hrs by radio-HPLC/LC-MS/MS analysis; assay type: ADME, cell-based, Hepatocyte
[3] = target: T1, UDP-glucuronosyltransferase 2B4 (Homo sapiens, UniProt P06133); assay: Activity of human UGT2B4 expressed in microsomes isolated from baculovirus infected insect cell assessed as enzyme-mediated (2S,3S,4S,5R,6R)-6-((1-carboxy-2-(4-((6-methoxy-1-methyl-1H-benzo[d]imidazol-2-yl)methoxy)phenyl)ethylthio)carbonylamino)-3,4,5-trihydroxytetrahydro-2H-pyran-2-carboxylic acid formation at 20 uM after 4 hrs by radio-HPLC/LC-MS/MS analysis in presence of UDPGA; assay type: ADME
T1 sequence (P06133 whole entry): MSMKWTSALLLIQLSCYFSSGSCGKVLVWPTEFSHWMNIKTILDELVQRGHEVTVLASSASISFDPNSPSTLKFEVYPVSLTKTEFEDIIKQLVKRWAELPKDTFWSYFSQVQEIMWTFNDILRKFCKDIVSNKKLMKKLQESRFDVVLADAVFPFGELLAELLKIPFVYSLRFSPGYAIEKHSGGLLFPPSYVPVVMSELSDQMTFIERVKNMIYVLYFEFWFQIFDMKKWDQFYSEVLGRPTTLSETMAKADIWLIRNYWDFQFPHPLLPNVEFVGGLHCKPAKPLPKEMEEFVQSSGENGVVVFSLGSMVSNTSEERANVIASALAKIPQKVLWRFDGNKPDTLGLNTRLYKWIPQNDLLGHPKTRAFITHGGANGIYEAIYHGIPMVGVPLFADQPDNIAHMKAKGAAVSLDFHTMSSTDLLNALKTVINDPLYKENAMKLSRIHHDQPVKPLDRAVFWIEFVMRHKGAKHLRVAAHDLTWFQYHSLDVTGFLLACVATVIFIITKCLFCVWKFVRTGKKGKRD

Cytochrome P450 1A2 = target: T2, Cytochrome P450 1A2 (Homo sapiens, UniProt P05177); assay: Activity of human CYP1A2 expressed in microsomes isolated from baculovirus infected insect cell assessed as enzyme-mediated 3-(4-((6-methoxy-1-methyl-1H-benzo[d]imidazol-2-yl)methoxy)phenyl)-2-(methylsulfinyl)propanamide formation at 20 uM after 2 hrs by radio-HPLC/LC-MS/MS analysis in presence of NADPH-generating system/SAM; assay type: ADME
T2 sequence (P05177 whole entry): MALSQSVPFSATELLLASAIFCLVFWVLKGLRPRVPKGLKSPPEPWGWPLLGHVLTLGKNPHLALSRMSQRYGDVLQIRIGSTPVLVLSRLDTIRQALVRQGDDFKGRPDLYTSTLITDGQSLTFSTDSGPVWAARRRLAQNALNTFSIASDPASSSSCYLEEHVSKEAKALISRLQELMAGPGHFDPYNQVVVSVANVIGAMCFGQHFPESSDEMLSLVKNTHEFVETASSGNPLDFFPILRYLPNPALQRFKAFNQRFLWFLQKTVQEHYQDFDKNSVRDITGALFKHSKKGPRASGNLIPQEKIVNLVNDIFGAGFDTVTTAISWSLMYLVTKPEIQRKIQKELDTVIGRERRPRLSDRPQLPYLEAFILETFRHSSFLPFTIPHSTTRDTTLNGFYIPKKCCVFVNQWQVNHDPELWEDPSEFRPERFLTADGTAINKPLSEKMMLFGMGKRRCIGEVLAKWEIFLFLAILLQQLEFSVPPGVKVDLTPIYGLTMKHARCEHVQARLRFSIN

[4] = target: T3, UDP-glucuronosyltransferase 2B7 (Homo sapiens, UniProt P16662); assay: Activity of human UGT2B7 expressed in microsomes isolated from baculovirus infected insect cell assessed as enzyme-mediated 2-mercapto-3-(4-((6-methoxy-1-methyl-1H-benzo[d]imidazol-2-yl)methoxy)phenyl)propanoic acid formation at 20 uM after 4 hrs by radio-HPLC/LC-MS/MS analysis in presence of UDPGA, UDPGA/SAM and NADPH-generating system in presence of UDPGA and UDPGA/SAM; assay type: ADME
T3 sequence (P16662 whole entry): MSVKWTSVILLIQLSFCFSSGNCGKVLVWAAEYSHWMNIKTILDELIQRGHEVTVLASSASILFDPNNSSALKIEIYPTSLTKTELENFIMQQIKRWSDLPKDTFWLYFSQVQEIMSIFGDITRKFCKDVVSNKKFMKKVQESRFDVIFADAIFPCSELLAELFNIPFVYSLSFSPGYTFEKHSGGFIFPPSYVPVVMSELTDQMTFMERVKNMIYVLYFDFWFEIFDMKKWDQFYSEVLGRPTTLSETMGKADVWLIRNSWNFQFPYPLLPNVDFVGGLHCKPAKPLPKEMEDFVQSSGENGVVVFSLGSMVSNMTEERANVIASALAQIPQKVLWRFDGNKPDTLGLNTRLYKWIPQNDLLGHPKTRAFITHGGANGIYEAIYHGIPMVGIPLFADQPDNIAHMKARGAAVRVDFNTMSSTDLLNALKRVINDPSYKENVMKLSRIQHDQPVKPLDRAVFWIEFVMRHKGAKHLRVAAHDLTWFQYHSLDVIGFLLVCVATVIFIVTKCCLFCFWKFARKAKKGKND

[5] = target: T4, UDP-glucuronosyltransferase 1A3 (Homo sapiens, UniProt P35503); assay: Activity of human UGT1A3 expressed in microsomes isolated from baculovirus infected insect cell assessed as enzyme-mediated 3-(4-((6-methoxy-1-methyl-1H-benzo[d]imidazol-2-yl)methoxy)phenyl)-2-(methylthio)propanamide formation at 20 uM after 4 hrs by radio-HPLC/LC-MS/MS analysis in presence of NADPH-generating system/SAM in presence of UDPGA and UDPGA/SAM; assay type: ADME
T4 sequence (P35503 whole entry): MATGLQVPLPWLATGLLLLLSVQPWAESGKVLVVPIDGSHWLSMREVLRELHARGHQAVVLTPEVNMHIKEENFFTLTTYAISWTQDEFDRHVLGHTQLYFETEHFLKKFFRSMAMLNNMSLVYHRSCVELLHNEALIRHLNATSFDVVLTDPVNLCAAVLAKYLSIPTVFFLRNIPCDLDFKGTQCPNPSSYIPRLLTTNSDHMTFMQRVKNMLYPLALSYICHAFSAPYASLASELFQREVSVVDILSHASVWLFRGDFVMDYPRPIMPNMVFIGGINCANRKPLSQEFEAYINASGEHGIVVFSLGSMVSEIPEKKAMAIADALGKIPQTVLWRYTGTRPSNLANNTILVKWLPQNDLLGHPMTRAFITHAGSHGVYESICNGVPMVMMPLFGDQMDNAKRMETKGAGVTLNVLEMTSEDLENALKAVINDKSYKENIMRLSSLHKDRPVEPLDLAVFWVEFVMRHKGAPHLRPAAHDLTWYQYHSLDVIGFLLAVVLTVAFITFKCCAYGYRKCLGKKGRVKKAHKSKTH

[6] = Drug metabolism in monkey hepatocytes assessed as formation of 2-amino-3-((1-carboxy-2-(4-((6-methoxy-1-methyl-1H-benzo[d]imidazol-2-yl)methoxy)phenyl)ethyl)disulfanyl)propanoic acid at 30 uM after 3 hrs by radio-HPLC/LC-MS/MS analysis; conditions: cynomolgus monkey

Row | Drug metabolism [1] | Drug metabolism (Liver microsome) | Drug metabolism (Hepatocyte) | Drug metabolism [2] | Drug metabolism [3] | Drug metabolism (Cytochrome P450 1A2) | Drug metabolism [4] | Drug metabolism [5] | Drug metabolism [6] | Compound
1 | metabolite_detected | metabolite_detected | metabolite_not_detected |  |  |  |  |  |  | COc1ccc2nc(COc3ccc(CC(S)C(=O)O)cc3)n(C)c2c1 (centres undefined)
2 |  |  |  | metabolite_detected | metabolite_not_detected | metabolite_not_detected | metabolite_detected | metabolite_not_detected | metabolite_not_detected | COc1ccc2nc(COc3ccc(C[14CH]4SC(=O)NC4=O)cc3)n(C)c2c1.Cl (racemic)
